Measured values as given in article PMC3876047, “Self/Co-Assembling Peptide, EAR8-II, as a Potential Carrier for a Hydrophobic Anticancer Drug Pirarubicin (THP)—Characterization and in-Vitro Delivery” (International Journal of Molecular Sciences, 2013).

How the values were obtained:
[1] = Solubilisation of THP in water and EAR8-II solution (appearance); type: physicochemical; settings: visual appearance
Experimental: To determine a suitable concentration of required EAR8-II for THP encapsulation, different concentrations of EAR8-II, in a range of 0.05–1.0 mg/mL, were prepared and combined with THP at 0.1 mg/mL concentration in aqueous solution. Solubility of THP in water is very low, whereas it can be dissolved and stabilized in an EAR8-II solution at a minimum concentration of 0.2 mg/mL. […] However, at higher EAR8-II concentrations (0.2–0.6 mg/mL), THP molecules were fully dissolved, and consequently, a clear-transparent solution of the peptide-drug complexes formed. At much higher peptide concentrations (above 0.6 mg/mL), THP molecules were still fully soluble, but the excess amount of EAR8-II produced a cloudier solution, with clearly a higher particle size distribution. Note that amphiphilic features of EAR8-II, including the ionic and hydrophobic residues, stimulated binding with hydrophobic molecules of THP through protonation of NH2 to NH3^+ in THP molecules and hydrophobic interactions between alanine residues and aromatic rings in the THP structure. […] Both ionic and hydrophobic interactions are the possible main interactions of EAR8-II and THP, i.e., the protonation of THP in an acidic EAR8-II solution and hydrophobic interaction between THP and hydrophobic side chains of EAR8-II are the dominant forces in complexation of EAR8-II-THP. […]

[2] = Steady-state THP fluorescence, encapsulation of THP by EAR8-II; type: physicochemical; settings: [THP] = 0.1 mg/mL, fluorescence excitation 480 nm / emission 590 nm, plateau of intensity
Experimental: The amount of protonated THP in EAR8-II is also determined by measuring the fluorescence intensity of the excitation and emission by THP at different EAR8-II concentrations. Protonated THP absorbs light at 480 nm, and emits light at 590–600 nm. Fluorescence intensity for both the excitation and emission spectra is proportional to the concentration of protonated THP stabilized in the peptide solution. Although the initial concentration of THP was constant in each complex, the amount of protonated THP varied due to the dependency of the THP encapsulation efficiency on peptide concentration.
The THP fluorescence emission spectra were acquired on a photon technology international spectrafluorometer (Type QM4-SE, London, ON, Canada) with a continuous xenon lamp as the light source. The emission spectra were collected in the wavelength range of 500–800 nm, while samples were excited at 480 nm. The maximum emission peak of THP is at a wavelength of 590–600 nm. […] The fluorescence intensity at 590 and 480 nm for emission and excitation were obtained by taking the average of twenty points of fluorescence intensity, respectively. Each fluorescence spectrum was divided by lamp intensity to account for eventual lamp fluctuations. The normalized fluorescence intensity for both emission and excitation spectra at 590 and 480 nm was plotted for various peptide-to-drug ratios.

[3] = Dynamic light scattering, particle size of peptide and peptide-drug complexes; type: physicochemical; settings: DLS, intensity-based, aqueous solution, EAR8-II 0.5 mg/mL, 25 °C, no drug
Experimental: EAR8-II peptide solutions in the concentration range of 0.05–2 mg/mL (0.0547–2.188 mM) were prepared by dissolving peptide lyophilized powder in Milli-Q (18.2 MΩ) water (EMD Millipore, Billerica, MA, USA) followed by bath sonicating for 10 min. Freshly prepared peptide solutions were added to THP to reach fixed [THP] concentrations at 0.1 mg/mL (0.159 mM), followed by mechanical stirring at 900 rpm for 24 h.
The particle size distribution and zeta potential of peptide-drug complexes at different peptide-to-drug ratios were measured by a Zetasizer Nano ZS (Malvern Instruments, Worcestershire, UK). Appropriate settings, viscosity, refractive index, and dispersant solvent were set for each measurement at 25 °C. A small 50 μL volume of the sample was transferred from the vial to a disposable solvent resistant micro cuvette (ZEN0040, Malvern, Worcestershire, UK). The scattered light intensities of the samples were collected at an angle of 173°. This was known as backscatter detection, i.e., the relationship between the size of a particle and its scattered light intensity obtained with the multimodal Contin algorithm, which was provided in the Dispersion Technology Software 5.1 package (Malvern Instruments, Worcestershire, UK).

[4] = Tapping mode atomic force microscopy of nanostructure; type: physicochemical; settings: tapping mode AFM, EAR8-II 0.5 mg/mL
Experimental: Figure 2. Nanostructure of (A) EAR8-II and (C) EAR8-II-THP complex by tapping mode atomic force microscopy; Intensity-based particle size distribution of (B) EAR8-II and (D) EAR8-II-THP complex in aqueous solution by dynamic light scattering. EAR8-II concentration is 0.5 mg/mL, and THP concentration is 0.1 mg/mL.

A549 cells = experiment: Cellular toxicity, CCK-8 assay, A549; type: cell-based, Human; settings: 24 h
Experimental: (§1) All cell lines, purchased from Cedarlane (Burlington, ON, Canada), were used in the current study and cultured in their respective culture medium as follows: Human Cervical Adenocarcinoma: HeLa (CCL-2) in Eagle's Minimum Essential Medium (EMEM) (ATCC30-2003), Human lung cancer: A549 (CCL-185) in F-12 medium (ATCC30-2004). All medium solutions were prepared with 10% fetal bovine serum (FBS-[…]). Two human cancer cell lines, with 10^4 cells per well concentrations, were seeded in 96-well plates, followed by treatment with different peptide-drug complex ratios for 24 h. Cellular-toxicity experiments were performed with sensitive colorimetric assay called Cell counting kit-8 (CCK-8) (Dojindo Molecular Technologies, Inc. Burlington, ON, Canada). CCK-8 contains highly water-soluble tetrazolium salt (WST-8), which is reduced by dehydrogenase activities in cells to give the yellow color of the formazan dye, which is soluble in culture media. The amount of formazan dye is measured by absorption (O.D.) at 450 nm, which is directly proportional to the number of living cells.

HeLa cells = experiment: Cellular toxicity, CCK-8 assay, HeLa; type: cell-based, Human; settings: 24 h
Experimental: as §1

Compound | minimum EAR8-II concentration at which THP is dissolved and stabilized ([1]; aqueous solution, [THP] = 0.1 mg/mL, stirring at 900 rpm 24 h) | minimum concentration of peptide required to fully encapsulate THP [2] | hydrodynamic diameter of aggregates [3] | average height of self-assembled fibres [4] | average width of self-assembled fibres [4] | cellular viability (A549 cells; A549, THP at 38 μM in water, no peptide) | cellular toxicity in absence of peptide (A549 cells; A549, THP control without peptide) | solubility of THP in water ([1]; water, no peptide, THP 0.1 mg/mL, stirring 24 h) | cellular viability (HeLa cells; THP at 38 μM in water, no peptide) | cellular toxicity in absence of peptide (HeLa cells; THP control without peptide)
Ac-AEAEARAR-NH2 [EAR8-II, Ac-AEAEARAR-NH2] | 0.2 mg/mL | ~ 0.5 mg/mL | ~ 500 nm | 15 nm | 10 nm | – | – | – | – | –
COc1cccc2c1C(=O)c1c(O)c3c(c(O)c1C2=O)C[C@@](O)(C(=O)CO)C[C@@H]3O[C@H]1C[C@H](N)[C@H](O[C@@H]2CCCCO2)[C@H](C)O1 [THP, 4-O-tetrahydropyranyladriamycin] | – | – | – | – | – | 64.9 ± 6.4% | non-significant cellular toxicity | very low | 29.58 ± 3.69% | non-significant cellular toxicity
